# Conditions: buffer; pH 7.4; 200.0 µM
row,Structure (SMILES),solubility kinetic
1,Cc1nn(-c2ccccc2)c2[nH]c(=O)cc(C(F)F)c12,> 41.3 µg/mL
2,N#Cc1ccc(OCC(=O)N2CCc3ccccc32)cc1,1.8 µg/mL
3,CN(C)c1ccc(CC2C(=O)Nc3ccccc32)cc1 (stereo unspecified),37.3 µg/mL
4,COc1cc(OC)c(OC)cc1CNCCNC(=O)c1ccco1,44.5 µg/mL
5,O=c1oc2ccccc2n1Cc1ccccc1F,4.2 µg/mL
6,CC(C)N(Cc1ccccc1)C(=S)NCc1ccccc1,19.4 µg/mL
7,CCc1ccc(S(=O)(=O)NC2CC(C)(C)NC(C)(C)C2)cc1,35.8 µg/mL
8,Cc1cc(Br)ccc1NC(=S)N1CCOCC1,> 47.3 µg/mL
9,CC(C)OC(=O)/C(=C\c1cccnc1)NC(=O)c1ccccc1,> 46.6 µg/mL
10,N#C/C(=C\c1cccnc1)c1nc2ccccc2[nH]1,27.4 µg/mL
11,Nc1ccccc1C(=O)N1CCCC1,> 28.5 µg/mL
12,Cc1ccc(CNC(=O)c2cc(=O)c3ccc(C)cc3o2)cc1,2.6 µg/mL
13,CC(=O)c1sc(NC(=O)c2cccs2)nc1C,2 µg/mL
14,CCNC(=O)C1CCCN(c2nc(C)cc(C)n2)C1 (stereo unspecified),> 39.4 µg/mL
15,O=C1CSC(c2ccccc2)N1c1ccc([N+](=O)[O-])cc1 (stereo unspecified),33.4 µg/mL
16,Cc1csc(SCC(=O)Nc2nncs2)n1,> 40.9 µg/mL
17,Cc1ccc(S(=O)(=O)n2c(N)nc3ccccc32)cc1,2.7 µg/mL
18,Nc1nc(NCC2CCCO2)nc(Nc2ccccc2F)c1[N+](=O)[O-] (stereo unspecified),0.6 µg/mL
19,Cc1ccccc1C(=O)c1cccn1CC(=O)N1CCCCC1,> 46.6 µg/mL
20,O=C(OCC(=O)N1CCCCC1)c1c[nH]c2ccccc12,> 42.9 µg/mL
21,CC(=O)Nc1ccc2c(c1)ncn2-c1ccccc1,> 37.7 µg/mL

row,Structure (SMILES),solubility kinetic
1,O=C(Cc1ccc(Cl)cc1)NCC(=O)N1CCCCCC1,> 46.3 µg/mL
2,CN(C)CC#CCC(O)(c1ccccc1)c1ccccc1,> 41.9 µg/mL
3,Cc1ccccc1OC(C)C(=O)NCCC1=CCCCC1 (stereo unspecified),19.6 µg/mL
4,CCOc1ccc(C(C)=O)cc1CN1C(=O)C(=O)N(CC)C1=O,41.5 µg/mL
5,Cc1csc(NC(=O)COc2ccc3c(c2)CCC3)n1,6.9 µg/mL
6,Cc1ccc(OCC(O)CN2CCOCC2)c(C)c1.Cl (stereo unspecified),> 45.3 µg/mL
7,O=C(c1ccco1)N1CCN(C23CC4CC(CC(C4)C2)C3)CC1,> 47.2 µg/mL
8,NC(=O)CCN1CCCCC1,> 23.4 µg/mL
9,CC1(C(=O)N2CCN(c3ccccc3)CC2)CC1(Cl)Cl (stereo unspecified),46.8 µg/mL
10,Cc1ccc(C)c(N(CC(=O)N2CCCC2)S(C)(=O)=O)c1,35.8 µg/mL
11,Cc1ccc(C)c(C(C)NC(=O)C2CCCO2)c1 (stereo unspecified),36.7 µg/mL
12,N#C/C(=C\Nc1ccc(Cl)cn1)S(=O)(=O)c1ccccn1,3.7 µg/mL
13,Nc1ccccc1-n1cccc1,14.5 µg/mL
14,O=C(O)/C=C/C(=O)Nc1nc(-c2ccc3ccccc3c2)cs1,> 48.7 µg/mL
15,Cc1ccc(C)c(NC(=O)N2CCc3ccccc3C2)c1,18.9 µg/mL
16,Oc1cc2c(cc1CN1CCN(c3ccccc3)CC1)OCO2,17.6 µg/mL
17,COc1ccc(CC(=O)OC(C)C(=O)Nc2ccc(S(N)(=O)=O)cc2)cc1 (stereo unspecified),> 58.9 µg/mL
18,CSc1ccccc1C(=O)Nc1ccc2c(c1)OCO2,> 43.1 µg/mL
19,Br.O=[N+]([O-])c1ccc(CSC2=NCCN2)cc1,43.2 µg/mL
20,NS(=O)(=O)c1ccc(NC(=O)c2ccc(S(=O)(=O)N3CCCCCC3)cc2)cc1,6.3 µg/mL
21,O=C(OCC(=O)N1CCCCC1)c1cccs1,> 38 µg/mL

row,Structure (SMILES),solubility kinetic
1,COC(=O)CNc1nc(Cl)nc(NC2CCCCC2)n1,27.7 µg/mL
2,Cc1cccn2c(=O)c3cc(C(=O)NCC(C)C)sc3nc12,1.2 µg/mL
3,O=C(CN1C(=O)NC2(CCCc3ccccc32)C1=O)c1ccc(F)c(F)c1 (stereo unspecified),17.3 µg/mL
4,Cc1c(C)n(O)c2ccc3nonc3c12,> 30.5 µg/mL
5,Cc1cccc(Nc2ccccc2C(=O)O)c1C,> 36.2 µg/mL
6,COc1ccc(C(=O)OCC(=O)c2ccc3c(c2)NC(=O)CO3)cc1OC,10.8 µg/mL
7,COc1c2c(nc3occc13)C(CC=C(C)C)(OC)C(=O)C=C2 (stereo unspecified),> 47 µg/mL
8,O=C(NC1CC1)c1cc(OCC(F)(F)F)ccc1OCC(F)(F)F,44.3 µg/mL
9,COc1cc(N2CCCC2)ccc1C=O,29 µg/mL
10,Cc1nc2ccc(NC(=O)c3cccs3)cc2s1,8.4 µg/mL
11,Cc1ccc(NC(=O)CN(C)C(=O)Cc2ccccc2F)cc1,> 47.2 µg/mL
12,CN(Cc1ccccc1)C(=O)COC(=O)/C=C/c1ccc2c(c1)OCO2,22.3 µg/mL
13,CNc1oc(-c2cccs2)nc1S(=O)(=O)c1ccccc1,4.2 µg/mL
14,Cc1sc(NC(=O)COc2ccccc2)c(C#N)c1C,0.5 µg/mL
15,CSc1ccc(Cl)c(C(=O)OCC(=O)N(C)CCC#N)c1,> 49 µg/mL
16,CCCn1c(C)nnc1SCC(=O)NC1CCCCC1,> 44.5 µg/mL
17,O=C(O)/C=C/C(=O)NC1CCCCCCCCCCC1,> 42.2 µg/mL
18,O=c1nc(Nc2ccccc2)oc2ccccc12,26.8 µg/mL
19,CCCn1c(=O)cc(N)n(-c2ccc(OC(F)(F)F)cc2)c1=O,> 49.4 µg/mL
